# Where two headings read alike, the source gives them in different places.
# Key:
# [1] = target: T1, CETP in human plasma or serum pool (Homo sapiens, UniProt P11597); assay: Whole serum CETP activity assay (tritiated cholesterol ester); format: biochemical; conditions: 4 hours at 37° C.
# T1 construct: from tissue; host or cells: pooled human EDTA plasma or serum from healthy volunteers
# T1 sequence (P11597 18-493): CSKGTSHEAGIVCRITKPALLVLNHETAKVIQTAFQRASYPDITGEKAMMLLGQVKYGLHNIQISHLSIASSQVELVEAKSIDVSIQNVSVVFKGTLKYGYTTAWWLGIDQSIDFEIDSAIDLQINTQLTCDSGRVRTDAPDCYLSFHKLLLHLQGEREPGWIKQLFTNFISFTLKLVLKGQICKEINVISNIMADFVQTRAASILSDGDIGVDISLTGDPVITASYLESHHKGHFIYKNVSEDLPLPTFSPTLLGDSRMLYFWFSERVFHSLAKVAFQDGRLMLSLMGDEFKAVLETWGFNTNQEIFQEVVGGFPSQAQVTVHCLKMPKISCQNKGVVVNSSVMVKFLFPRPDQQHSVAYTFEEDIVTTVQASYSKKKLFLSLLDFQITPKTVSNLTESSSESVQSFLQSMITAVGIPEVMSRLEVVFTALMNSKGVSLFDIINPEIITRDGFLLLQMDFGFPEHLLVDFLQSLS
# Procedure: Blood was obtained from healthy volunteers recruited from the personnel of Monsanto Company, Saint Louis, Mo. Blood was either collected in tubes containing EDTA (EDTA plasma pool) or in tubes without EDTA (spun to form the serum pool). The EDTA human plasma pool or human serum pool, previously stored at −20° C., was thawed at room temperature, and centrifuged for 5 minutes to remove any particulate matter. Tritiated HDL, radiolabeled in the cholesteryl ester moiety ([^3H]CE-HDL) as described by Morton and Zilversmit (J. Biol. Chem., 256, 11992-95 (1981) which is incorporated by reference herein), was added to the plasma or serum to a final concentration of (25 μg/ml cholesterol).
# Inhibitor compounds were added to the plasma or serum as follows: Equal volumes of the plasma or serum containing the [^3H]CE-HDL (396 μl) were pipetted into micro tubes (Titertube®, Bio-Rad Laboratories, Hercules, Calif.). Compounds, usually dissolved as 20-50 mM stock solutions in DMSO, were serially diluted in DMSO (or an alternative solvent in some cases, such as dimethylformamide or ethanol). Four μl of each of the serial dilutions of inhibitor compounds or DMSO alone were then added to each of the plasma or serum tubes. The tubes were immediately mixed. Triplicate aliquots (100 μl) from each plasma or serum tube were then transferred to wells of 96-well round-bottomed polystyrene microtiter plates (Corning, Corning, N.Y.). Plates were sealed with plastic film and incubated at 37° C. for 4 hours.
# Test wells contained plasma or serum with dilutions of inhibitor compounds. Control wells contained plasma or serum with DMSO alone. Blank wells contained plasma or serum with DMSO alone that were left in the micro tubes at 4° C. for the 4 hour incubation and were added to the microtiter wells at the end of the incubation period. VLDL and LDL were precipitated by the addition of 10 μl of precipitating reagent (1% (w/v) Dextran Sulfate (Dextralip50)/0.5M magnesium chloride, pH 7.4) to all wells. The wells were mixed on a plate mixer and then incubated at ambient temperature for 10 min. The plates were then centrifuged at 1000×g for 30 mins at 10° C. The supernatants (50 μl) from each well were then transferred to Picoplate™ 96 plate wells (Packard, Meriden, Conn.) containing […] Microscint™-40 (Packard, Meriden, Conn.). The plates were heat-sealed (TopSeal™-P, Packard, Meriden, Conn.) according to the manufacturers directions and mixed for 30 min.
# Radioactivity was measured on a microplate scintillation counter (TopCount, Packard, Meriden, Conn.). […] The maximum percent transfer (in the control wells) was determined using the following equation: [formula]
# The percent of control transfer determined in the wells containing inhibitor compounds was determined as follows: [formula]
# IC50 values were then calculated from plots of % control versus concentration of inhibitor compound.
# CETP = target: T2, CETP (Homo sapiens, UniProt P11597); assay: CETP activity in vitro: transfer of [3H]CE from HDL donor to LDL acceptor particles; format: biochemical
# T2 construct: made in house; host or cells: CHO cells (serum-free conditioned medium)
# T2 sequence (P11597 18-493): T1 sequence (P11597 18-493)
# Summary of the method: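 Transfer of radiolabelled cholesteryl ester from HDL to LDL was followed over 2 h at 37 °C in Tris buffer (pH 7.4, 150 mM NaCl, 2 mM EDTA, 1% BSA), using CETP secreted by transfected CHO cells. Radioactivity in dextran sulfate/Mg-precipitated LDL was measured by scintillation counting, giving IC50.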
# [2] = Table 6, compounds of formula T-6, read-out: IC50
# [3] = 50% inhibition of [3H]CE transfer from HDL to LDL, 2 hours at 37° C., read-out: IC50(μm)
# [4] = IC50(μm), 50% inhibition of [3H]CE transfer from HDL to LDL, 2 hours at 37° C.
SMILES,IC50 (CETP; [3]) [µM],melting point [°C],IC50 (CETP; [4]) [µM],other results
"COC(=O)c1c(C(F)F)nc(C(F)(F)F)c(SSc2ccc(C(C)(C)C)cc2)c1CC(C)C [Compound 180, Methyl 5-(4-t-Butylphenyldithio)-2-(difluoromethyl)-4-(2-methylpropyl)-6-(trifluoromethyl)-3-pyridinecarboxylate]",–,–,–,"IC50 whole serum CETP activity [1]: 9 µM; IC50 (CETP; Table 5, compounds of formula T-5, read-out: IC50): 0.45 µM"
"COC(=O)c1c(C(F)F)nc(C(F)(F)F)c(CSc2ccc3ccccc3c2)c1CC(C)C [Compound 215, Methyl 5-[(2-Naphthyl)thiomethyl]-2-(difluoromethyl)-4-(2-methylpropyl)-6-(trifluoromethyl)-3-pyridinecarboxylate]",–,–,–,IC50 whole serum CETP activity [1]: 110 µM; IC50 (CETP; [2]): 2 µM
"COC(=O)c1c(C(F)F)nc(C(F)(F)F)c(CSc2ccc(Cl)c(Cl)c2)c1CC(C)C [Compound 214, Methyl 5-[(3,4-Dichlorophenyl)thiomethyl]-2-(difluoromethyl)-4-(2-methylpropyl)-6-(trifluoromethyl)-3-pyridinecarboxylate]",–,–,–,IC50 whole serum CETP activity [1]: 70 µM; IC50 (CETP; [2]): 2 µM
"COC(=O)c1c(C(F)F)nc(C(F)(F)F)c(C(=O)Sc2ccc(C)cc2C)c1CC(C)C [Compound 152, Methyl 2-(Difluoromethyl)-5-{[(2,4-dimethylphenyl)thio]carbonyl}-4-(2-methylpropyl)-6-(trifluoromethyl)-3-pyridinecarboxylate]",–,98.5 to 102.5,60,–
"COC(=O)c1c(OC(=O)N(c2ccccc2)c2ccccc2)cc(C(F)(F)F)nc1C(F)(F)F [Compound 25, Methyl 2,6-Bis(trifluoromethyl)-4-(diphenylaminocarbonyloxy)-3-pyridinecarboxylate]",40,114 to 116,–,–
"COC(=O)c1c(C(F)F)nc(C(F)(F)F)c(C(=O)Sc2ccc(SC)cc2)c1CC(C)C [Compound 159, Methyl 2-(Difluoromethyl)-4-(2-methylpropyl)-5-{[(4-methylthiophenyl)thio]carbonyl}-6-(trifluoromethyl)-3-pyridinecarboxylate]",–,112 to 114,80,–
"COC(=O)c1c(C(F)F)nc(C(F)(F)F)c(C(=O)Sc2ccc(Cl)cc2)c1CC(C)C [Compound 162, Methyl 5-{[(4-chlorophenyl)thio]carbonyl}-2-(difluoromethyl)-4-(2-methylpropyl)-6-(trifluoromethyl)-3-pyridinecarboxylate]",–,94 to 96.5,50,–
"COC(=O)c1c(C(F)F)nc(C(F)(F)F)c(C(=O)Oc2cc(C(C)(C)C)cc(C(C)(C)C)c2)c1CC(C)C [Compound 167, 3-Methyl 5-(3,5-Di-t-butylphenyl) 2-(Difluoromethyl)-4-(2-methylpropyl)-6-(trifluoromethyl)-3,5-pyridicarboxylate]",60,100 to 103.5,–,–
"COC(=O)c1c(C(F)F)nc(C(F)(F)F)c(C(=O)Sc2c(Cl)cccc2Cl)c1CC(C)C [Compound 164, Methyl 5-{[(2,6-Dichlorophenyl)thio]carbonyl}-2-(difluoromethyl)-4-(2-methylpropyl)-6-(trifluoromethyl)-3-pyridinecarboxylate]",–,109.5 to 112.5,50,–

# Now from value to compound, other results behind:
IC50 (CETP; [3]) [µM],SMILES,melting point [°C],IC50 (CETP; [4]) [µM],other results
> 100,"COC(=O)c1c(C(F)F)nc(C(F)(F)F)c(C(=O)Oc2ccccc2OC)c1CC(C)C [Compound 172, 3-Methyl 5-(2-Methoxyphenyl) 2-(Difluoromethyl)-4-(2-methylpropyl)-6-(trifluoromethyl)-3,5-pyridicarboxylate]",73 to 74.5,–,–
60,"COC(=O)c1c(C(F)F)nc(C(F)(F)F)c(C(=O)Sc2ccc(C(C)C)cc2Cc2ccc(F)cc2)c1CC(C)C [Compound 160, Methyl 2-(Difluoromethyl)-4-(2-methylpropyl)-5-{[(2-(4-fluorobenzyl)-4-isopropylphenyl)thio]carbonyl}-6-(trifluoromethyl)-3-pyridinecarboxylate]",86.5 to 91,–,–
50,"COC(=O)c1c(C(F)F)nc(C(F)(F)F)c(C(=O)Sc2ccc(C(C)(C)C)cc2C(C)(C)C)c1CC(C)C [Compound 155, Methyl 2-(Difluoromethyl)-5-{[(2,4-di-t-butylphenyl)thio]carbonyl}-4-(2-methylpropyl)-6-(trifluoromethyl)-3-pyridinecarboxylate]",115.5 to 120.5,–,–
> 100,"COC(=O)c1c(C(F)F)nc(C(F)(F)F)c(C(=O)Oc2ccccc2[N+](=O)[O-])c1CC(C)C [Compound 166, 3-Methyl 5-(2-Nitrophenyl) 2-(Difluoromethyl)-4-(2-methylpropyl)-6-(trifluoromethyl)-3,5-pyridicarboxylate]",102.5 to 105.5,–,–

# From patent publication US6794396B2, “Substituted pyridines useful for inhibiting cholesteryl ester transfer protein activity” (Pharmacia Corporation, priority 1998, dated 2004)
